Data: patent publication US20020071869A1, “Microparticle composition and method” (priority 2000, published 2002)

Test: Critical micelle concentration of surfactant
Type: physicochemical
Settings: at 25° C.

SMILES: CCCCCCCCCCCCOS(=O)(=O)[O-].[Na+] [SDS, sodium dodecyl sulfate]
- critical micelle concentration: 8.1 mM
